Experimental findings from PubChem BioAssay (NCI) are described below.

Structures are written as SMILES. “And” between values parts separate entries of the source, which are not always exact repeats. Equal values may be shown once.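 Grown in 96-well plates, cells were treated for 48 hours with each compound at five concentrations. Insufficient inhibition: endpoint recorded as highest concentration tested. Here, GI50 denotes the concentration required for 50% inhibition of growth. TGI denotes the concentration required for complete inhibition of growth.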

Common to all, as to assay: DTP human tumour cell line panel, 48 h
In experiment [1] the test system is MCF7 breast.
The subject of experiment [2] is T-47D breast.
Experiment [3] relates to HS 578T breast.
The subject of experiment [4] is BT-549 breast.

As to `O=c1[nH]ccc2nc(N3CCC(O)CC3)nc(Nc3cccc(C(F)(F)F)c3)c12`, the GI50 is 2.84 µM in experiment [1], 3.11 µM in experiment [2], 1.93 µM in experiment [3] and 1.6 µM in experiment [4]. Also, the TGI in experiment [1] turned out to be 12.7 µM; in experiment [2], 26.1 µM; in experiment [3], 14.1 µM; in experiment [4], 4.34 µM.
With `C[C@@H]1N=C(c2ccc(Br)cc2)Nc2nc3ccccn3c2C1=O`, the GI50 in experiment [1] is 2.99 µM; in experiment [2] it was 4.62 µM; in experiment [3], 2.81 µM; in experiment [4] it was 5.49 µM. Further, the total growth inhibition concentration (TGI) in experiment [1] is above 100 µM; in experiment [2], above 100 µM; in experiment [3] it was 52 µM; in experiment [4], above 100 µM.
Regarding `c1cc(OCCN2CCCCC2)ccc1CNc1ccc2nc(CCC3CCCCC3)[nH]c2c1`, the GI50 in experiment [1] is 1.7 µM; in experiment [2], 1.71 µM; in experiment [3], 1.64 µM; in experiment [4] it was 1.71 µM. Besides, the TGI in experiment [1] was determined as 4.26 µM; in experiment [2], 4.52 µM; in experiment [3], 4.64 µM; in experiment [4] it was 3.87 µM.
`CCOc1ccc(Nc2nc(-c3ccc4c(c3)NC(=O)CO4)cs2)cc1`: the GI50 was 3.18 µM in experiment [1], 1.94 µM in experiment [2], 22.5 µM in experiment [3] and 2.56 µM in experiment [4]. Further, the TGI in experiment [1] was 23.3 µM; in experiment [2] it was 10.4 µM; in experiment [3], above 100 µM; in experiment [4] it was 20.7 µM.
On to `CCCN1CCN(c2ccc3nc(-c4ccc5nc(-c6cc(OC)ccc6OC)[nH]c5c4)[nH]c3c2)CC1`, for which the GI50 is 1.8 µM in experiment [1], 21.6 µM in experiment [2], 20.1 µM in experiment [3] and 15.7 µM in experiment [4]. In addition, the TGI came to 3.82 µM in experiment [1], 54.1 µM in experiment [2], 55.6 µM in experiment [3] and 36.1 µM in experiment [4].
On to `COc1ccc(C2=C(c3ccc(OC)c(OC)c3)C(=O)OC2)cc1`, for which the total growth inhibition concentration (TGI) in experiment [1] is above 48.8 µM; in experiment [2] it was above 91.8 µM; in experiment [3], 0.792 µM; in experiment [4] it was above 100 µM. Further, the GI50 was 1.66 µM in experiment [2], 0.255 µM in experiment [3] and 3.55 µM in experiment [4].
In the case of `COc1cc2cc(C(=O)Nc3cc(N)c4ccccc4c3CCCl)[nH]c2c(OC)c1OC`, the concentration for 50% growth inhibition (GI50) in experiment [1] was 0.00869 µM; in experiment [2] it was 0.0372 µM; in experiment [3], 0.0899 µM; in experiment [4] it was 0.121 µM. The TGI in experiment [1] was 0.374 µM; in experiment [2], 0.237 µM; in experiment [3], above 50 µM; in experiment [4] it was 0.804 µM.
Take `Cn1nc(-c2ccccc2)nc1[N+](=O)[O-]`: the TGI in experiment [2], in experiment [3] and in experiment [4] was above 10 µM throughout.
For the compound `Nc1cc(-c2cccc(OC(F)(F)F)c2)nc2ccc(N3CCCC3)cc12`, the GI50 is 0.037 µM and 0.036 µM and 0.0354 µM in experiment [1]; 18.8 µM in experiment [2]; 0.051 µM and 0.0484 µM and 0.0347 µM in experiment [3]; 0.208 µM and 0.182 µM and 0.1 µM in experiment [4]. Further, the total growth inhibition concentration (TGI) is 17.2 µM and > 100 µM in experiment [1]; 92.4 µM in experiment [2]; 13.2 µM and > 100 µM in experiment [3]; above 100 µM in experiment [4].
Regarding `CC1(C)CC(n2cnc(-c3ccc(F)cc3)c2-c2ccnc(N)n2)CC(C)(C)N1`, the GI50 in experiment [1] is 6.01 µM; in experiment [2], 24.3 µM; in experiment [3], above 25 µM; in experiment [4] it was above 25 µM. For the same compound, the total growth inhibition concentration (TGI) in experiment [1] was above 19.6 µM; in experiment [2], above 25 µM; in experiment [3] it was above 25 µM; in experiment [4], above 25 µM.
With `c1ccc2c(c1)-c1ccccc1C2N1CC2CCC(CC2)C1`, the TGI in experiment [1] came to 32.7 µM; in experiment [2], 43.3 µM; in experiment [3] it was 33.2 µM; in experiment [4] it was 47.9 µM.
Turning to `Cc1cc2cc3c(C)cc(=O)oc3c(C)c2o1`, the TGI in experiment [1], in experiment [2], in experiment [3] and in experiment [4] was above 100 µM each time.
As to `Cc1cc(-c2nnc(N)nc2-c2ccc(F)cc2)cc(Cl)n1`, the GI50 in experiment [1] is above 100 µM; in experiment [2], 28.3 µM; in experiment [3] it was above 100 µM; in experiment [4] it was 58.1 µM. The total growth inhibition concentration (TGI) in experiment [1], in experiment [2], in experiment [3] and in experiment [4] was above 100 µM throughout.
`COc1ccc2c(CN3CCC[C@H]3C(=O)O)cc3cc4c(cc3c2c1)OCO4`: the GI50 in experiment [1] is 13.5 µM; in experiment [2], 20 µM; in experiment [3] it was 11.6 µM; in experiment [4], 15.7 µM. Further, the TGI in experiment [1] was 62.3 µM; in experiment [2] it was above 100 µM; in experiment [3] it was 48 µM; in experiment [4], 43.3 µM.
Regarding `CN(C)C1CCN(C(=O)c2ccc(NC(=O)Nc3ccc(-c4nc(N5CCOCC5)nc(N5CCOCC5)n4)cc3)cc2)CC1`, the GI50 in experiment [1] is 0.00665 µM and 0.00604 µM; in experiment [2] it was < 0.01 µM and 0.00386 µM and 0.0056 µM; in experiment [3], < 0.01 µM and 0.00879 µM and 0.025 µM; in experiment [4], 0.018 µM and 0.0199 µM and 0.0434 µM. The TGI is 2.5 µM and > 10 µM in experiment [1]; 0.0345 µM and 0.0176 µM and 0.0884 µM in experiment [2]; 0.061 µM and 0.0697 µM and 0.343 µM in experiment [3]; 0.239 µM and 0.206 µM and 0.635 µM in experiment [4].
For `O=P([O-])(O)OP(=O)([O-])O.[NH-][C@@H]1CCCC[C@H]1[NH-].[Pt+4]`, the GI50 in experiment [1] is 7.78 µM and 2.93 µM; in experiment [2], 18.4 µM and 4.82 µM; in experiment [3] it was > 100 µM and 56.5 µM; in experiment [4], > 100 µM and 30.5 µM. The total growth inhibition concentration (TGI) was above 100 µM in experiment [1]; > 100 µM and 39.5 µM in experiment [2]; above 100 µM in experiment [3]; above 100 µM in experiment [4].
On to `COc1cc(C(c2cc3c(cc2O)OCO3)N2CCCCC2)cc(OC)c1OC` (configuration not stated), for which the concentration for total growth inhibition (TGI) was determined as 29.3 µM in experiment [1], 47.8 µM in experiment [2], 43.5 µM in experiment [3] and 24.4 µM in experiment [4].
As for `NC(=N\N=C/c1cccc([N+](=O)[O-])c1)/C(N)=N\N=C/c1cccc([N+](=O)[O-])c1`, the GI50 in experiment [1], in experiment [2] and in experiment [3] was above 100 µM in each case. In addition, the TGI in experiment [1], in experiment [2] and in experiment [3] was above 100 µM each time.
With `O=C(Nc1cc[c]([Sb](=[O])([OH])[OH])cc1)c1ccccc1`, the GI50 in experiment [2], in experiment [3] and in experiment [4] was above 100 µM throughout. Also, the total growth inhibition concentration (TGI) in experiment [2], in experiment [3] and in experiment [4] was above 100 µM in each case.
Consider `O=C1NC(=S)NC(=O)C1=Cc1cccc2cc3ccccc3cc12`, for which the TGI was 3.86 µM in experiment [2], above 25.6 µM in experiment [3] and 3.33 µM in experiment [4].
As for `COc1c(Cl)c2c(c(OC)c1OC)-c1ccc(SC)c(=O)cc1[C@@H](NC(=O)OCC(F)(F)F)CC2`, the GI50 in experiment [1], in experiment [3] and in experiment [4] was below 0.01 µM each time. Moreover, the TGI in experiment [1] was above 100 µM; in experiment [3], above 100 µM; in experiment [4] it was 0.956 µM.
In the case of `CC(C)CNc1nc(-c2ccccc2)nc2ccccc12`, the figures for the GI50 in experiment [1], in experiment [2] and in experiment [3] were 18.6 µM, 21.6 µM and 16.5 µM, respectively. The total growth inhibition concentration (TGI) in experiment [1] is 44.4 µM; in experiment [2], above 100 µM; in experiment [3], 33.9 µM.
Turning to `COc1ccc(-c2ccc(/C=N/n3c(COc4ccc(Cl)cc4Cl)nn(CN4CCN(C)CC4)c3=S)o2)c([N+](=O)[O-])c1`, the GI50 in experiment [1] is 10 µM; in experiment [2], 11.7 µM; in experiment [3], 37.8 µM. In addition, the total growth inhibition concentration (TGI) in experiment [1] was 29.8 µM; in experiment [2], 53.2 µM; in experiment [3], above 100 µM.
With `Cc1ccc(-c2nc(N)nc3c2nnn3Cc2cccc(CO[C@H]3CCOC3)n2)o1`, the figures for the GI50 in experiment [1], in experiment [3] and in experiment [4] were above 100 µM, above 100 µM and 82 µM, respectively. Also, the total growth inhibition concentration (TGI) in experiment [1], in experiment [3] and in experiment [4] was above 100 µM throughout.
Take `CN1CCCCCC(=N\O)/C(=N/O)CCCCC1`: the concentration for total growth inhibition (TGI) in experiment [1], in experiment [3] and in experiment [4] was above 100 µM each time.
As to `O=C([O][Hg][CH2]C1COCC([CH2][Hg][O]C(=O)c2ccccc2)O1)c1ccccc1` (configuration not stated), the GI50 in experiment [1] is 1.25 µM; in experiment [3], 19.8 µM; in experiment [4] it was 17.3 µM. Moreover, the total growth inhibition concentration (TGI) stood at 14.2 µM in experiment [1], 65.8 µM in experiment [3] and 31.2 µM in experiment [4].
For `C=CCN(CC=C)C(=O)c1cc(C)nc2c1c(=O)n(-c1ccccc1)c(=O)n2CC(O)CN1CCN(c2ncccn2)CC1` (configuration not stated), the GI50 in experiment [1] was 33.3 µM; in experiment [2], above 100 µM; in experiment [3], above 100 µM. Also, the total growth inhibition concentration (TGI) in experiment [1], in experiment [2] and in experiment [3] was above 100 µM throughout.
